PubChem BioAssay (NCI)
“And” between values parts separate entries of the source, which are not always exact repeats. Equal values may be shown once.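 Each compound was tested at five concentrations against cells in 96-well plates for 48 hours. Here, GI50 denotes the concentration required for 50% inhibition of growth. TGI is the concentration that stops growth completely.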

Columns and labels:
Assay in all cases: NCI-60 cell line screen, 48 h
U251 CNS = system: U251 CNS
PC-3 prostate = system: PC-3 prostate
MDA-MB-435 = system: MDA-MB-435
CAKI-1 renal = system: CAKI-1 renal
HS 578T breast = system: HS 578T breast
UO-31 renal = system: UO-31 renal
K-562 leukemia = system: K-562 leukemia
MDA-MB-231 breast = system: MDA-MB-231 breast
M14 melanoma = system: M14 melanoma
OVCAR-3 ovarian = system: OVCAR-3 ovarian

SMILES | GI50 (U251 CNS) | TGI (U251 CNS) | GI50 (PC-3 prostate) | TGI (PC-3 prostate) | GI50 (MDA-MB-435) | TGI (MDA-MB-435) | GI50 (CAKI-1 renal) | TGI (CAKI-1 renal) | GI50 (HS 578T breast) | TGI (HS 578T breast) | GI50 (UO-31 renal) | TGI (UO-31 renal) | GI50 (K-562 leukemia) | TGI (K-562 leukemia) | GI50 (MDA-MB-231 breast) | TGI (MDA-MB-231 breast) | GI50 (M14 melanoma) | TGI (M14 melanoma) | GI50 (OVCAR-3 ovarian) | TGI (OVCAR-3 ovarian)
CCOC(=O)N1CCN(/[N+]([O-])=N/Oc2ccc([N+](=O)[O-])cc2[N+](=O)[O-])CC1 | 1.55 µM | 21.5 µM | 3.48 µM | 16.7 µM | 0.315 µM | 2.98 µM | 0.521 µM | 1.96 µM | 5.84 µM | 37.4 µM | 10.6 µM | 23.3 µM | 0.153 µM | 3.72 µM | 1.99 µM | 7.08 µM | 0.328 µM | 1.43 µM | 0.542 µM | 1.82 µM
OC(Cc1ccncc1)C(Cl)(Cl)Cl (stereo not drawn) | > 100 µM | > 100 µM | 21.8 µM | > 100 µM | > 100 µM | > 100 µM | 32.4 µM | > 100 µM | > 100 µM | > 100 µM | > 100 µM | > 100 µM | > 100 µM | > 100 µM | > 100 µM | > 100 µM | > 100 µM | > 100 µM | 17.4 µM | > 100 µM
COc1ccc2[nH]cc(-c3ccc(-c4c[nH]c5ccc(OC)cc45)s3)c2c1 | 3.68 µM | 12.6 µM | 3.08 µM | 9.77 µM | 8.32 µM | > 41.4 µM | 5.54 µM | 19 µM | 8.99 µM | 44.6 µM | 2.9 µM | 13.5 µM | 2.54 µM | 7.3 µM | 2.88 µM | 8.55 µM | 6.36 µM | 18.4 µM | 10.7 µM | 27.5 µM
C/C(=N\NC(=S)N1CC2CCC(CC2)C1)c1nccs1 | – | 6.43 µM | – | 16.6 µM | – | 12.7 µM | – | 14.7 µM | – | 38.6 µM | – | 1.52 µM | – | 9.9 µM | – | 19.9 µM | – | 1.6 µM | – | 19.8 µM
O=C(Nc1ccc([As](=O)(O)O)cc1)Nc1cccc(Cl)c1Cl | – | > 100 µM | – | > 100 µM | – | > 100 µM | – | > 100 µM | – | 84.8 µM | – | > 100 µM | – | > 100 µM | – | > 100 µM | – | > 100 µM | – | > 100 µM
CN(/N=C/c1cccc2cccnc12)c1ccc([N+](=O)[O-])cc1[N+](=O)[O-] | – | 29.1 µM | – | > 100 µM | – | > 100 µM | – | 64.9 µM | – | 34.8 µM | – | 90.1 µM | – | > 100 µM | – | 56.8 µM | – | > 94.4 µM | – | 39.8 µM
O.O.[NH-]C1(C(=O)O)CCCC1.[NH-]C1(C(=O)O)CCCC1.[Ni+2] | – | > 100 µM | > 100 µM | > 100 µM | > 100 µM | > 100 µM | – | > 100 µM | > 100 µM | > 100 µM | – | > 100 µM | – | > 100 µM | > 100 µM | > 100 µM | 96.7 µM | > 100 µM | – | > 100 µM
C[C@]12CC[C@@H]3c4ccc(OC(=O)N(CCCl)CCCl)cc4CC[C@H]3[C@@H]1CC[C@@H]2O | 2.58 µM | 13.8 µM and 26.9 µM | 3.02 µM | > 40.2 µM | 0.354 µM | 6.15 µM | 2.44 µM | – | 1.89 µM | 10.8 µM | 3.12 µM | 14 µM | – | > 47.5 µM | 2.59 µM | 8.29 µM | 1.61 µM | 11.5 µM | 0.691 µM | 4.56 µM
COc1ccc(-c2cc3c(c4cc(OC)ccc24)C(=O)OC3=O)cc1 | – | > 100 µM | – | > 100 µM | – | > 100 µM | – | > 100 µM | – | > 100 µM | – | > 100 µM | – | > 100 µM | – | > 100 µM | – | > 100 µM | – | > 100 µM
CCOC(=O)/C(C=Nc1ccc(-c2nc3ccccc3[nH]2)cc1)=C(/C)O | 8.74 µM | 15.6 µM | 27.2 µM | > 50 µM | 14.9 µM | 43.4 µM | 17.6 µM | > 50 µM | 11.4 µM | 30.5 µM | 10.3 µM | 31.1 µM | 4.51 µM | 14.8 µM | 9.65 µM | 31.3 µM | 12.7 µM | 32 µM | 12.7 µM | 31.7 µM
CCOC(=O)Nc1ccc2c(c1)/C(=N\NC(N)=S)c1ccccc1-2 | 4.54 µM | 40.9 µM | 4.44 µM | 24.8 µM | 3.58 µM | 18.3 µM | 3.22 µM | 15.2 µM | 5.43 µM | 36.7 µM | 3.97 µM | 14.2 µM | 3.94 µM | > 44.8 µM | 3.48 µM | > 54.6 µM | 4.69 µM | 23.1 µM | 4.38 µM | 27.8 µM
CCOC(=O)c1c(C)nc2c(c1N)CC(=O)N2Cc1ccc(OC)cc1 | 4.14 µM | > 100 µM | > 100 µM | > 100 µM | > 100 µM | > 100 µM | > 100 µM | > 100 µM | 4.78 µM | > 100 µM | > 100 µM | > 100 µM | > 100 µM | > 100 µM | 3.77 µM | > 100 µM | > 100 µM | > 100 µM | 6.24 µM | > 100 µM
COc1cc(C(O)CCBr)c(OC)cc1C (stereo not drawn) | – | > 100 µM | – | > 73 µM | – | > 42.6 µM | – | > 100 µM | – | > 89.4 µM | – | > 100 µM | – | > 100 µM | – | > 72.7 µM | – | 33.9 µM | – | 44.1 µM
O=C1C(Cl)=C(Nc2cccc(F)c2)C(=O)N1Cc1ccc(Cl)cc1 | 0.337 µM | > 32 µM | 0.526 µM | 4.53 µM | 0.665 µM | 2.3 µM | 1.71 µM | 13.8 µM | 2.86 µM | 9.28 µM | 3.69 µM | 35.9 µM | 0.206 µM | > 32.1 µM | 0.242 µM | 4.7 µM | 1.2 µM | 4.35 µM | 1.19 µM | 6.84 µM
